The subject of series [1] is SW1990. The experiment in a line: Effect on BRCA2 gene expression in human SW1990 cells at 1 uM in presence of Olaparib by Q-PCR analysis. Type of series: functional, cell-based.
For series [2], the system named is SW1990. The experiment in a line: Effect on MDC1 gene expression in human SW1990 cells at 1 uM in presence of Olaparib by Q-PCR analysis. Type of series: functional, cell-based.
Series [3] relates to SW1990. Put plainly: Effect on CDC25A gene expression in human SW1990 cells at 1 uM in presence of Olaparib by Q-PCR analysis. In kind it is functional, cell-based.
Series [4] deals with SW1990. The experiment in a line: Effect on FOXM1 gene expression in human SW1990 cells at 1 uM in presence of Olaparib by Q-PCR analysis. Type of series: functional, cell-based.
In series [5] the test system is SW1990. Put plainly: Effect on HEXIM1 gene expression in human SW1990 cells at 1 uM in presence of Olaparib by Q-PCR analysis. Type of series: functional, cell-based.
Series [6] relates to SW1990. The experiment in a line: Effect on CDK1 to 2 gene expression in human SW1990 cells at 1 uM in presence of Olaparib by Q-PCR analysis. In kind it is functional, cell-based.
For series [7], the system named is Mus musculus. Put plainly: Inhibition of homologous recombinant repair in nude mouse xenografted with human SW1990 cells assessed as reversal of olaparib-induced BRCA2 expression at 30 mg/kg, ip after 4 days by Western blot analysis. As to conditions: time 4.0 day. In kind it is functional, organism-based. Background: A xenograft is tissue or cells of one species grown in another, often human tumour cells in immunodeficient mice.

The subject of series [8] is Mus musculus. Put plainly: Inhibition of homologous recombinant repair in nude mouse xenografted with human SW1990 cells assessed as reversal of olaparib-induced Rad51 expression at 30 mg/kg, ip after 4 days by Western blot analysis. In kind it is functional, organism-based. As to conditions: time 4.0 day.
The subject of series [9] is Mus musculus. The experiment in a line: Induction of DNA damage in human SW1990 cells xenografted in nude mouse assessed as increase in gammaH2AX at 30 mg/kg, ip by immunohistochemical analysis. Type of series: functional, organism-based.
In series [10] the test system is Mus musculus. The experiment in a line: Inhibition of PARP1 expression in nude mouse xenografted with human […] cells at 30 mg/kg, ip administered for 28 days by DAPI staining based laser confocal microscopic analysis. In kind it is functional, organism-based. As to conditions: time 28.0 day.
Series [11] relates to Mus musculus. Put plainly: Inhibition of PARP1 expression in nude mouse xenografted with human […] cells at 30 mg/kg, ip administered for 28 days by Q-PCR analysis. Type of series: functional, organism-based. As to conditions: time 28.0 day.
Series [12] has as its system Mus musculus. Put plainly: Inhibition of CCND1 expression in nude mouse xenografted with human SW1990 cells at 30 mg/kg, ip measured after 4 days by Q-PCR analysis. In kind it is functional, organism-based. As to conditions: time 4.0 day.
Series [13] concerns SW1990. The experiment in a line: Effect on E2F2 gene expression in human SW1990 cells at 1 to 2 uM by Q-PCR analysis. Type of series: functional, cell-based. As to conditions: dose 1-2 µM.
The test system of series [14] is SW1990. Put plainly: Antiproliferative activity against human SW1990 cells assessed as inhibition of cell growth measured after 4 days by MTT assay. Type of series: functional, cell-based. As to conditions: SW1990, 96 h.
For series [15], the system named is SW1990. Put plainly: Effect on CCND1 gene expression in human SW1990 cells at 1 to 2 uM by Q-PCR analysis. In kind it is functional, cell-based. As to conditions: dose 1-2 µM.
Series [16] relates to SW1990. The experiment in a line: Induction of cell cycle arrest in human SW1990 cells assessed as accumulation of cells at G0/G1 phase at 2 uM incubated for 4 days by propidium iodide staining based flow cytometry (reference value: 64.79%). Type of series: functional. As to conditions: time 4 day. For orientation: Flow cytometry measures light scatter and fluorescence of single cells or particles in a stream.

Series [17] relates to SW1990. Put plainly: Induction of cell cycle arrest in human SW1990 cells assessed as accumulation of cells at G2/M phase at 1 uM incubated for 4 days by propidium iodide staining based flow cytometry (reference value: 5.89%). In kind it is functional. As to conditions: time 4 day.
The target in series [18] is Poly [ADP-ribose] polymerase 1 (Homo sapiens, UniProt P09874). The experiment in a line: Inhibition of PARP1 (unknown origin) using biotinylated NAD+ as substrate by microplate reader method.
Poly [ADP-ribose] polymerase 1, sequence (P09874 whole entry): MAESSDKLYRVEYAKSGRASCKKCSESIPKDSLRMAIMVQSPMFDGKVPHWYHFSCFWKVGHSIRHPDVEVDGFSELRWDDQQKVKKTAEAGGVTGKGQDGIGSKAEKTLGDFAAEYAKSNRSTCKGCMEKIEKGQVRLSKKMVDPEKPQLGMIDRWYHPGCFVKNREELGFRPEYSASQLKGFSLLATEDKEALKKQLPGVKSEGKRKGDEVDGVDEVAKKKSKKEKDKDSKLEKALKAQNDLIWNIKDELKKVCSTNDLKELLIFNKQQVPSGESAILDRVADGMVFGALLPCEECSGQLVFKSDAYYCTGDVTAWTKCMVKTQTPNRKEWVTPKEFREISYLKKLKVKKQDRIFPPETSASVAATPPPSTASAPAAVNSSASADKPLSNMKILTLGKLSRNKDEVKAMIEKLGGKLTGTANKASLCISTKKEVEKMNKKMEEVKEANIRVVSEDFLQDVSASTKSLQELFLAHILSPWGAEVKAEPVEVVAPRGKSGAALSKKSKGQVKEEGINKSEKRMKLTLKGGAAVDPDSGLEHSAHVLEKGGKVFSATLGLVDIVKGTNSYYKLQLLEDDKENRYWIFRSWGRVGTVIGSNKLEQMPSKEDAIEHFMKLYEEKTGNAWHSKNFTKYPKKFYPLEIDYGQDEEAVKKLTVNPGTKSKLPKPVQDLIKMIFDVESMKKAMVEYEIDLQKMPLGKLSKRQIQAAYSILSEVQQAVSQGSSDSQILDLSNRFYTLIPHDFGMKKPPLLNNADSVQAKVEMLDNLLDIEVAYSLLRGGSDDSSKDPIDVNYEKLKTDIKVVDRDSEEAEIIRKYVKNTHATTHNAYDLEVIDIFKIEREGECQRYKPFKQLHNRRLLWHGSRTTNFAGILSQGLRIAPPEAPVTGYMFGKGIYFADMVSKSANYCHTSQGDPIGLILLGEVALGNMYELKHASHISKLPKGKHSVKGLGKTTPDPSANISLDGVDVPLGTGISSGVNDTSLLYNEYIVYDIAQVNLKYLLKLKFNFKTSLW
Series [19] relates to SW1990. Put plainly: Induction of DNA damage in human SW1990 cells assessed as increase in gammaH2AX expression at 6 uM incubated for 4 days by DAPI staining based laser confocal microscopic analysis. As to conditions: time 4.0 day. Type of series: functional, cell-based.
Series [20] relates to SW1990. The experiment in a line: Effect on CCND1 gene expression in human SW1990 cells at 6 uM by Q-PCR analysis. In kind it is functional, cell-based.
In series [21] the test system is SW1990. The experiment in a line: Effect on BRCA2 gene expression in human SW1990 cells at 6 uM by Q-PCR analysis. In kind it is functional, cell-based.
Series [22] has as its system SW1990. Put plainly: Effect on c-Myc gene expression in human SW1990 cells at 6 uM by Q-PCR analysis. Type of series: functional, cell-based.
Series [23] has as its system SW1990. Put plainly: Effect on E2F2 gene expression in human SW1990 cells at 6 uM by Q-PCR analysis. Type of series: functional, cell-based.
For series [24], the system named is SW1990. The experiment in a line: Effect on CDK6 gene expression in human SW1990 cells at 6 uM by Q-PCR analysis. Type of series: functional, cell-based.
The subject of series [25] is SW1990. Put plainly: Upregulation of CCND1 expression in human SW1990 cells at 6 uM measured after 4 days by Western blot analysis. As to conditions: time 4.0 day. Type of series: functional, cell-based. In general terms: Immunoblotting shows a protein as a band on a membrane.
Series [26] concerns SW1990. The experiment in a line: Upregulation of CDK6 expression in human SW1990 cells at 6 uM measured after 4 days by Western blot analysis. Type of series: functional, cell-based. As to conditions: time 4.0 day.
The test system of series [27] is SW1990. The experiment in a line: Effect on ALDH1A1 gene expression in human SW1990 cells at 6 uM by Q-PCR analysis. In kind it is functional, cell-based.
Series [28] concerns SW1990. The experiment in a line: Upregulation of BRCA1 expression in human SW1990 cells at 6 uM measured after 4 days by Western blot analysis. As to conditions: time 4.0 day. Type of series: functional, cell-based.
Series [29] can be described thus: Toxicity in nude mouse xenografted with human SW1990 cells assessed as liver damage at 45 mg/kg, ip administered for 28 days by H and E staining based fluorescence microscopic analysis. In kind it is organism-based. As to conditions: in vivo, 672 h, time 28 day.

Three compounds from ChEMBL document CHEMBL5131471, “Design, synthesis and mechanism studies of novel dual PARP1/BRD4 inhibitors against pancreatic cancer” (Eur J Med Chem, 2022) can be followed below.

In general, IC50 refers to the point on the concentration scale where inhibition reaches its midpoint.

Each structure is given as a SMILES string. Calls of active or inactive are those of the source. The calls are words filed in the database; no cut-off is given here.

Consider `Cc1sc2c(c1C)C(c1ccc(Cl)cc1)=N[C@@H](CC(=O)OC(C)(C)C)c1nnc(C)n1-2`, for which the result in the series with SW1990 [1], in the series on SW1990 [2], with SW1990 [3], with SW1990 [4], in the series on SW1990 [5] and in the series with SW1990 [6] was Active.

Regarding `Cc1noc(C)c1-c1ccc2c(c1)C(c1ccccc1)N(Cc1nc3c(C(N)=O)cccc3[nH]1)C(=O)N2C` (centres undefined), the inhibition entry with Mus musculus [7], in the series with Mus musculus [8], in the series with Mus musculus [10], with Mus musculus [11] and with Mus musculus [12] was “Active” each time. The outcome with Mus musculus [9], in the series on SW1990 [13] and with SW1990 [15] was Active. Besides, the values for the IC50 (in the series on SW1990 [14]; in series [18]) were 1340 nM and 49 nM, respectively. The Activity in the series with SW1990 [16] came out at 78.17%; in the series on SW1990 [17], 10.13%.

Take `O=C(c1cc(Cc2n[nH]c(=O)c3ccccc23)ccc1F)N1CCN(C(=O)C2CC2)CC1` [OLAPARIB]: the outcome in the series on SW1990 [19], with SW1990 [20], with SW1990 [21], with SW1990 [22], with SW1990 [23] and in the series on SW1990 [24] was Active. Also, the result with SW1990 [25], in the series on SW1990 [26], in the series on SW1990 [27] and in the series with SW1990 [28] was Active. The Activity result in series [29] is “Non-Toxic”.
